Results published in US7615377B2, “Fluorescein-based metal sensors” (Massachusetts Institute of Technology, priority 2003, dated 2009).
Where two headings read alike, the source gives them in different places. Blank lines part the entries; values can stand above or below the compound they belong to.

Experiments:
[1] = Fluorescence response of sensor to Hg^2+ (fluorescence spectroscopy, integrated emission); assay type: binding
Description: General Spectroscopic Procedures. Ultrol grade PIPES (piperazine-N,N′-bis(2-ethanesulfonic acid) from Calbiochem, KCl (99.997%) and anhydrous HgCl2 (99.998%) were purchased and used as received. Millipore filtered water was used to prepare all aqueous solutions. With the exception of the pKa determination, all spectroscopic measurements were conducted at neutral pH with 50 mM PIPES, 100 mM KCl buffer adjusted to pH 7. An Orion glass electrode, calibrated prior to use, was employed to record solution pH. Mercury solutions were prepared from 10 mM stock solutions of HgCl2. Stock solutions of MS1 (1 mM in DMSO) was prepared, stored at −4° C., and thawed in the dark immediately prior to use. After addition of this stock solution to aqueous buffers, the resulting solution contained 0.1% DMSO for fluorescence and 1% DMSO for absorption measurements. The KaleidaGraph software package was used to manipulate all spectral data.
Fluorescence Spectroscopy. Emission spectra were obtained with a Hitachi F-3010 spectrofluorimeter linked to a Pentium PC running the SpectraCalc software package. A rhodamine quantum counter was used to normalize the spectra for excitation intensity, and manufacturer-supplied correction curves were used to normalize the emission spectra. Manufacturer supplied photomultiplier curves were used to correct for emission intensity. A circulating water bath was used during all experiments to regulate the temperature at 25.0° C.±0.1° C. Spectra were obtained with 3 nm slit widths and either a 240 nm/min or 600 nm/min scan speed. All measurements were conducted at least in triplicate.

[2] = Quantum yield and extinction coefficient measurements (reference fluorescein in 0.1 N NaOH); assay type: physicochemical
Text: Quantum yield, Φ, may be obtained by comparison of the integrated area of the corrected emission spectrum of the sample with that of a reference solution. A preferred reference solution is a solution of fluorescein in 0.1 N NaOH, quantum efficiency 0.95. The concentration of the reference is adjusted to match the absorbance, Abs, of the test sample. The quantum yields may be calculated using the following equation: […]
Optical Absorption Spectroscopy. UV-visible spectra were obtained by using either a Cary IE scanning spectrophotometer or a Hewlet Packard diode array spectrophotometer. Both instruments were controlled by Pentium PCs and were run using the manufacturer supplied software packages. A circulating water bath was used during acquisition to maintain the temperature at 25.0° C.±1.0° C. Samples were contained in 1-cm path length quartz cuvettes (3.5 mL volume). All manipulations were performed at least three times.
Quantum Yield Measurements. The quantum yield of MS1 was determined by comparison to fluorescein in 0.1 N NaOH (φ=0.95) as a reference. In a typical experiment, a 6 mL solution of ˜1 μM MS1 was prepared. For metal-free studies, 10 μL of 100 mM K4EDTA was added to chelate any adventitious metal ions. To determine the quantum efficiencies of the metal-bound dye, 10 μL of a 10 mM HgCl2 solution was added to a 1 μM MS1 solution. The concentration of the reference solution was adjusted such that Amax (490 nm) equaled Amax of MS1 (505 nm) or Amax of the Hg^2+ complex (501 nm), and the excitation wavelength was chosen as the wavelength determined from where the reference and probe excitation spectra intersect. Excitation was at 497 nm for MS1 and at 496 nm for the Hg^2+ complex. Emission spectra were integrated from 510-650 nm and the quantum yields were calculated standard methods.

[3] = Determination of protonation constants (fluorescence dependence on pH); assay type: physicochemical; details: 10 mM KOH, 1 μM probe; for pKa: aqueous solution of 100 mM KCl; for pKa, formation of a non-fluorescent isomer / pKa, protonation of the tertiary amine: 100 mM KCl, pH ~12 to ~3
Description: Determination of Protonation Constants. The pKa values for MS1 affect fluorescence were determined by plotting the integrated emission intensity versus pH from ˜12 to ˜4. In a typical experiment, a 30 mL solution of 1 μM MS1 in 100 mM KCl, 10 mM KOH was prepared (pH ˜12). Aliquots of 6 N, 2 N, 1 N, 0.5 N, and 0.5 N HCl were added to achieve pH changes of approximately […], and the emission spectrum was recorded after each addition. […] Upon excitation at 500 nm, the emission spectra were integrated over the range 510 nm to 650 nm, normalized and plotted against pH. The data were fit to the non-linear expression previously described.

[4] = Selectivity of mercury-induced fluorescence in the presence of other metal ions; assay type: binding; details: for fluorescence increase upon addition of Hg^2+: 1 μM probe, excitation 500 nm
Description: Selectivity of Mercury-Induced Fluorescence in the Presence of Other Metal Ions. The selectivity of MS1 for Hg^2+ against a background of various alkali, alkaline earth, transition metal ions, and Zn(II), Cd(II) or Pb(II) was investigated by using fluorescence spectroscopy. Aqueous metal ion solutions of Li(I), Na(I), Rb(I), Mg(II), Ca(II), Sr(II), Ba(II), Mn(II), Co(II), Ni(II), Cd(II), and Hg^2+ were prepared from the chloride salts. The Cu(II) solution was prepared from copper sulfate and the Pb(II) was prepared from lead nitrate. A solution of Cr(III) was prepared from chromium acetate and stored at pH 1. Solutions of Fe(II) were prepared immediately before use with ferrous ammonium sulfate and water that was thoroughly purged with Ar. All stock solutions were ˜10 mM, with the exception of 100 mM NaCl. In a typical experiment, the emission spectrum of the free dye was recorded. A 20 μL aliquot of a ˜10 mM metal solution was then added to a 1 μM solution of MS1 (3 mL, for a concentration of metal ion at about 1 to about 50 ppm, depending on the molecular weight of the metal ion tested) and the emission spectrum was recorded with excitation at 500 nm. Subsequently, a 20 μL portion of 10 mM HgCl2 was added and the emission spectrum was obtained. The spectra were integrated from 510-650 nm and normalized with respect to the free dye.

[5] = Reversibility of Hg^2+ binding upon addition of TPEN
[6] = Water solubility of the probe; assay type: physicochemical
[7] = pH 7, metal-free, at absorption maximum (497 nm sensor 1; 505 nm MS1)
[8] = pH 7, with Hg^2+, at absorption maximum (500 nm sensor 1; 501 nm MS1)

Compound: CCSCCSCCN(CCSCCSCC)Cc1ccccc1NCc1c(O)ccc2c(-c3ccccc3C(=O)O)c3cc(Cl)c(=O)cc-3oc12 [sensor 6]
fluorescence change upon Hg^2+ coordination [1]: fluorescence decrease

Compound: O=C(O)c1ccccc1-c1c2cc(Cl)c(=O)cc-2oc2c(CNc3ccccc3CN(CCS)Cc3ccccn3)c(O)ccc12 [sensor 4]
fluorescence response upon addition of Hg^2+ ([1]; crude reaction mixture from the synthesis, in the presence of chloride ion): positive fluorescence response

EC50 ([1]; 500 nM probe, pH 7, read-out: EC50 (concentration of Hg^2+ required to achieve 50% of maximum fluorescence)): 410 nM
absorption maximum, free sensor ([2]; pH 7): 505 nm
increase in brightness upon Hg^2+ binding ([2]; pH 7): ~3.3 fold
emission maximum, free sensor ([2]; pH 7, 50 mM PIPES, 100 mM KCl, EDTA present): 524 nm
quantum yield, free sensor ([2]; pH 7, metal-free): 0.04
extinction coefficient (epsilon), free sensor [2, 7]: 61,400 M^−1 cm^−1
extinction coefficient (epsilon), free sensor ([2]; pH 7, metal-free, at absorption maximum (497 nm sensor 1; 505 nm MS1), listed as MS1): 61,300 M^−1 cm^−1
absorption maximum, Hg^2+-bound ([2]; pH 7, with Hg^2+): 501 nm
emission maximum, Hg^2+-bound ([2]; pH 7, with Hg^2+): 528 nm
quantum yield, Hg^2+-bound ([2]; pH 7, with Hg^2+): 0.11
extinction coefficient (epsilon), Hg^2+-bound [2, 8]: 73,200 M^−1 cm^−1
pKa ([3]; pH ~12 to ~3, read-out: pKa, formation of a non-fluorescent isomer): 4.8
pKa ([3]; pH ~12 to ~3, read-out: pKa, protonation of the aniline nitrogen atom): 7.1
reversibility of Hg^2+ binding [5]: reversibly
fluorescence after TPEN addition, distance from the background value ([5]; 1 equivalent TPEN added to stoichiometric mixture of sensor and Hg^2+): ≤ 20%
water solubility [6]: water-soluble
Compound: CCSCCN(CCSCC)Cc1ccccc1NCc1c(O)ccc2c(-c3ccccc3C(=O)O)c3cc(Cl)c(=O)cc-3oc12 [sensor 3, 2-{5-[(2-{[Bis-(2-ethylsulfanyl-ethyl)-amino]-methyl}-phenylamino)-methyl]-2-chloro-6-hydroxy-3-oxo-3H-xanthen-9-yl}-benzoic acid]
increase in integrated emission upon addition of Hg^2+ ([1]; pH 7 (50 mM PIPES, 100 mM KCl)): ~7 fold
increase in integrated emission upon addition of Hg^2+ ([1]; pH 7 (50 mM PIPES, 100 mM KCl), listed as MS1): ~5 fold
increase in quantum yield upon Hg^2+ coordination ([2]; pH 7): ~2.75 fold
Hg response in a background of alkali and alkaline earth metals ([4]; Li(I), Na(I), Rb(I), Mg(II), Ca(II), Sr(II), Ba(II)): unaffected
effect of Zn(II), Cd(II), Cr(III), Pb(II) on fluorescence response to Hg^2+ ([4]; Zn(II), Cd(II), Cr(III), Pb(II) background): do not inhibit
interference of first-row transition metal ions with Hg^2+-induced fluorescence increase ([4]; first-row transition metal ions): only Cu(II) interferes
selectivity of fluorescence increase for Hg^2+ over other cations ([4]; pH 7): selective for Hg^2+
normalized integrated emission versus cycle number, Hg^2+/TPEN cycles ([5]; 1 μM sensor, 1 equiv Hg^2+ and 1 equiv TPEN alternately, excitation 500 nm): restoration and decrease of fluorescence upon addition of 1 equiv Hg^2+ and 1 equiv TPEN, respectively, over the course of five cycles

Compound: CC(C)(S)CN(Cc1ccccn1)Cc1c(O)ccc2c(-c3ccccc3C(=O)O)c3cc(Cl)c(=O)cc-3oc12 [sensor 2]
pKa, formation of a non-fluorescent isomer [3]: 4.7
pKa, protonation of the tertiary amine [3]: 8.0
selectivity of fluorescence increase for Hg^2+ over other cations ([4]; pH 7): selective for Hg^2+
fluorescence increase upon addition of Hg^2+ ([4]; pH 7 (50 mM PIPES, 100 mM KCl)): 1.5 fold
selectivity of fluorescence increase for Hg^2+ over other cations ([4]; pH 11): selective for Hg^2+
fluorescence increase upon addition of Hg^2+ ([4]; pH 11 (50 mM CABS, 100 mM KCl)): 6 fold

Compound: CCSCCN(CCSCC)Cc1c2oc3c(CN(CCSCC)CCSCC)c(O)c(Cl)cc3c(-c3ccccc3C(=O)O)c-2cc(Cl)c1=O [sensor 7]
fluorescence change upon Hg^2+ coordination [1]: fluorescence decrease

Compound: O=C(O)c1ccccc1-c1c2cc(Cl)c(=O)cc-2oc2c(CN(CCS)Cc3ccccn3)c(O)ccc12 [sensor 1]
increase in integrated emission upon addition of Hg^2+ ([1]; pH 11 (50 mM CABS, 100 mM KCl), 0-3 equivalents Hg^2+, excitation 504 nm): ~6 fold
quantum yield, free sensor ([2]; pH 7, metal-free): 0.27
extinction coefficient (epsilon), free sensor [2, 7]: 61,600 M^−1 cm^−1
quantum yield, Hg^2+-bound ([2]; pH 7, with Hg^2+): 0.27
extinction coefficient (epsilon), Hg^2+-bound [2, 8]: 69,000 M^−1 cm^−1
quantum yield, free sensor ([2]; pH 11, metal-free): 0.07
extinction coefficient (epsilon), free sensor ([2]; pH 11, metal-free, 504 nm): 60,800 M^−1 cm^−1
quantum yield, Hg^2+-bound ([2]; pH 11, with Hg^2+): 0.24
extinction coefficient (epsilon), Hg^2+-bound ([2]; pH 11, with Hg^2+, 507 nm): 78,300 M^−1 cm^−1
pKa, formation of a non-fluorescent isomer [3]: 4.6
pKa, protonation of the tertiary amine [3]: 8.2
selectivity of fluorescence increase for Hg^2+ over other cations ([4]; pH 7): selective for Hg^2+
fluorescence increase upon addition of Hg^2+ ([4]; pH 7 (50 mM PIPES, 100 mM KCl)): 1.5 fold
fluorescence increase upon addition of Hg^2+ ([4]; pH 7 (50 mM PIPES, 100 mM KCl), listed as Sensor 1): ~2.5 fold
selectivity of fluorescence increase for Hg^2+ over other cations ([4]; pH 11): selective for Hg^2+
fluorescence increase upon addition of Hg^2+ ([4]; pH 11 (50 mM CABS, 100 mM KCl)): 5 fold
